{"source": "patent US12590100B2", "about": "“Tetrahydro-spiroindoline-pyrrolopyrrole-triones inhibitors of the NRF2-β-TrCP interaction for use in the treatment of fatty liver disease” (Universidad Autonoma De Madrid, priority 2021, dated 2026)", "key": {"NRF2 [1]": {"test_system": "NRF2", "assay": "NRF2 and HO-1 protein levels in MEFs (immunoblot)", "assay_type": "cell-based, mouse", "experimental": "FIG. 4. […] MEFs in serum-depleted conditions were subjected to (A-C) 1 μM, 3 μM, or 10 μM of PHAR and 10 μM of SFN as a positive control for 16 h; or (D-F) 10 μM of PHAR for the indicated times. In both experiments, 0.1% DMSO was used as a vehicle. A), representative immunoblots of NRF2, HO1, KEAP1, LAMINB, and GAPDH as loading controls. B) and C), densitometric analysis of NRF2 and HO1 protein levels of the representative immunoblots depicted in (A), expressed as a ratio of NRF2/LAMINB or HO1/GAPDH. The data is depicted as means±SEM (n=3). Statistical analysis was performed with one-way ANOVA followed by the Bonferroni test to check inter-group differences. *p<0.05; ***p<0.001 vs. 0. D), representative immunoblots of NRF2, HO1, KEAP1, LAMINB, and GAPDH as loading controls. E) and F), Densitometric analysis of NRF2 and HO1 protein levels of the representative immunoblots of (D), expressed as a ratio of NRF2/LAMINB or HO1/GAPDH. The data is depicted as means±SEM (n=3). Statistical analysis was performed with one-way ANOVA followed by the Bonferroni test to check inter-group differences. *p<0.05; ***p<0.001 vs. 0. G), Reporter MCF-7 c32 ARE-luc cells were subjected to 1 μM, 3 μM, or 9 μM of PHAR and 10 μM of SFN as a positive control. 0.1% DMSO was used as a vehicle. Luciferase activity was measured after 16 h of treatment. The data is depicted as means±SEM (n=3). Statistical analysis was performed with one-way ANOVA followed by the Bonferroni test to check inter-group differences. **p<0.01; ***p<0.001 vs. 0. H), MTT assay to evaluate cell viability/toxicity after treatments. I), Serum-deprived MEFs were subjected to 10 μM of PHAR. The mRNA levels of Hmox1, Nqo1, Aox1, Glc, and Gclm after 8 h of treatment were determined by means of pRT-PCR and normalized by means of average LaminB, Gapdh, and β-actin. The data is depicted as means±SEM (n=3). Statistical analysis was performed with the Student's T test. *p<0.05; **p<0.01 ***p<0.001 vs. 0.\nIn order to empirically determine if PHAR activates NRF2, mouse embryo fibroblasts (MEFs) were treated with several doses of the compound (1 μM, 3 μM, and […]) for 16 h and with 10 μM of sulforaphane (SFN), one of main electrophilic activators of NRF2, used as a positive control.\nMoreover, a time course of NRF2 activation with PHAR (10 μM for 2, 4, and 8 h) or with SFN (10 μM, 8 h) was done as a positive control."}, "NRF2 [2]": {"test_system": "NRF2", "assay": "NRF2 and HO-1 protein levels in mouse tissues after IP treatment", "assay_type": "in vivo", "conditions": "C57BL/6 mice", "experimental": "FIG. 9. PHAR activates NRF2 and HO-1 in liver. A), UV and MS spectrum derived from the HPLC-MS analysis of PHAR dissolved in methanol for the identification of peaks associated with the compound. A blue rectangle surrounds the mass associated with PHAR. (B-D), the mice were treated with the vehicle (Tween-80+PBS, 1:13), 50 mg/kg of PHAR, or 50 mg/kg of SFN (saline) as a positive control by means of intraperitoneal (IP) injection for 2 hours. B), HPLC-MS UV and MS spectra derived from representative liver samples of both experimental groups used for determining PHAR levels in the liver 120 min after a single IP injection of 50 mg/kg. A blue rectangle surrounds the mass associated with PHAR. C), representative immunoblots showing NRF2, HO1, and LAMINB protein levels as the liver extract loading control. D), densitometric analysis of NRF2 protein levels of the representative immunoblots shown in (C), expressed as a ratio of NRF2/LAMINB. Statistical analysis was performed with one-way ANOVA followed by the Bonferroni test to compare inter-group differences. ***p<0.001 vs. vehicle. E) and F), the mice were treated daily with vehicle (Tween-80+PBS, 1:13) or 50 mg/kg of PHAR by means of intraperitoneal injection for 5 days. E), representative immunoblots showing NRF2, HO1, and LAMINB protein levels as loading control in brain, liver and kidney. F), densitometric analysis of NRF2 and HO1 protein levels in the liver tissue of the representative immunoblots shown in (E), expressed as a ratio of NRF2/LAMINB or HO1/LAMINB levels. Statistical analysis was performed with a Student t test to compare inter-group differences. **p<0.01 vs. vehicle.\nOnce the mechanism of action of PHAR was deciphered, the capacity thereof to induce NRF2 levels in a murine model was evaluated. C57BL/6 mice received a single intraperitoneal (IP) injection of 50 mg/kg PHAR (Tween-80+PBS, 1:13) or 50 mg/kg of SFN (saline) as a positive control. The UV spectrum derived from the HPLC-MS study of the PHAR compound dissolved in methanol alone helped the identification of the peak associated with the compound for subsequent identification in the tissue analysis. […] Taking this as a reference point, liver tissue analysis was performed to check for the presence of PHAR therein.\nFor this reason, C57BL/6 mice were treated daily by IP route for 5 days with 50 mg/kg of vehicle or 50 mg/kg of PHAR."}, "[3]": {"assay": "Preliminary safety study, 4 weeks IP treatment in control and STZ-treated mice", "assay_type": "in vivo, mouse", "experimental": "FIG. 10. […] A preliminary safety profile of PHAR treatment was assessed in […] control and streptozotocin (STZ) treated mice. These mice were subjected to a daily IP dose of […] of vehicle (VEH; Tween-80:PBS, 1:13), or PHAR for 5 days a week for 4 weeks. A) weight evolution during the weeks of treatment. (B-E) serum analysis of the levels of albumin (B), total protein (C) and liver transaminases, aspartate transaminase, AST (D), and alanine transaminase, ALT (E). The ranges of normal values are highlighted with a green dashed line. The number of individuals per group is reflected in the graphs.\nPreliminary safety studies have been performed in 7-week-old control and streptozotocin (STZ)-treated mice. These mice were subjected to an I.P treatment of 50 mg/kg of vehicle (Tween-80: PBS, 1:13) or PHAR for 4 weeks with 5 weekly doses. […] On the other hand, serum levels of albumin, total protein and two transaminases (AST and ALT) were analyzed."}}, "note": "Entries after “also recorded” stand apart in the source; their conditions may differ."}
{"smiles": "O=C1[C@@H]2[C@H](Cc3c[nH]c4ccccc34)N[C@]3(C(=O)Nc4ccc(Cl)cc43)[C@@H]2C(=O)N1c1ccc2c(c1)OCCO2", "note": "[PHAR]", "values": [{"measurement": "HO-1 levels", "setting": "NRF2 [1]; 16 h, PHAR 1, 3, 9 μM", "value": "increase, mainly with the dose of 9 μM"}, {"measurement": "NRF2 accumulation", "setting": "NRF2 [1]; 16 h, PHAR 1, 3, 9 μM, SFN 10 μM", "value": "induced NRF2 accumulation, although to a slightly lesser extent than the accumulation induced by SFN"}, {"measurement": "NRF2 accumulation, time course", "setting": "NRF2 [1]; PHAR 10 μM for 2, 4, 8 h, SFN 10 μM, 8 h", "value": "induced NRF2 accumulation 2 h after treatment"}, {"measurement": "HO-1 levels, time course", "setting": "NRF2 [1]; PHAR 10 μM, 8 h", "value": "increase in HO-1 levels after 8 h"}, {"measurement": "HO1 levels in kidney", "setting": "NRF2 [2]; IP 50 mg/kg daily for 5 days", "value": "not further increased"}, {"measurement": "NRF2 and HO1 levels in brain", "setting": "NRF2 [2]; IP 50 mg/kg daily for 5 days", "value": "not modified"}, {"measurement": "NRF2 and HO-1 in liver", "setting": "NRF2 [2]; IP 50 mg/kg daily for 5 days, 120 minutes after last administration", "value": "significant increase of NRF2 and HO-1 in liver"}, {"measurement": "liver HO-1 levels", "setting": "NRF2 [2]; single IP 50 mg/kg, 120 min", "value": "did not result in increased HO-1 levels"}, {"measurement": "liver NRF2 levels", "setting": "NRF2 [2]; single IP 50 mg/kg, 120 min", "value": "significant NRF2 accumulation"}, {"measurement": "body weight during treatment", "setting": "[3]; control and STZ-treated mice, I.P 50 mg/kg, 5 weekly doses, 4 weeks", "value": "did not lose weight"}, {"measurement": "serum albumin, total protein, AST and ALT", "setting": "[3]; control and STZ-treated mice, I.P 50 mg/kg, 5 weekly doses, after 4 weeks", "value": "values within normal ranges"}, {"measurement": "toxicity of chronic / prolonged administration", "setting": "[3]; mice, daily IP 5 days a week for 4 weeks", "value": "does not produce toxicity; also recorded: prolonged administration of PHAR is safe"}]}
